Test results from publication PMC4860574, “Bafetinib (INNO-406) reverses multidrug resistance by inhibiting the efflux function of ABCB1 and ABCG2 transporters” (Scientific Reports, 2016).

Experiments:
ABCB1 = target: T1, ABCB1 (Homo sapiens, UniProt P08183); test: stimulation of vanadate-sensitive ATPase activity in ABCB1 membranes; format: biochemical; details: read-out: concentration required to obtain 50% of maximal stimulation
T1 construct: full length, wild type; cell assays in SW620/Ad300 and HEK/ABCB1

ABCG2 = target: T2, ABCG2 (Homo sapiens, UniProt Q9UNQ0); test: inhibition of vanadate-sensitive ATPase activity in ABCG2 membranes; format: biochemical; details: read-out: concentration required to obtain 50% of maximal inhibition
T2 construct: cell assays in NCI-H460/MX20 and HEK/ABCG2-R482
T2 sequence (Q9UNQ0 1-655): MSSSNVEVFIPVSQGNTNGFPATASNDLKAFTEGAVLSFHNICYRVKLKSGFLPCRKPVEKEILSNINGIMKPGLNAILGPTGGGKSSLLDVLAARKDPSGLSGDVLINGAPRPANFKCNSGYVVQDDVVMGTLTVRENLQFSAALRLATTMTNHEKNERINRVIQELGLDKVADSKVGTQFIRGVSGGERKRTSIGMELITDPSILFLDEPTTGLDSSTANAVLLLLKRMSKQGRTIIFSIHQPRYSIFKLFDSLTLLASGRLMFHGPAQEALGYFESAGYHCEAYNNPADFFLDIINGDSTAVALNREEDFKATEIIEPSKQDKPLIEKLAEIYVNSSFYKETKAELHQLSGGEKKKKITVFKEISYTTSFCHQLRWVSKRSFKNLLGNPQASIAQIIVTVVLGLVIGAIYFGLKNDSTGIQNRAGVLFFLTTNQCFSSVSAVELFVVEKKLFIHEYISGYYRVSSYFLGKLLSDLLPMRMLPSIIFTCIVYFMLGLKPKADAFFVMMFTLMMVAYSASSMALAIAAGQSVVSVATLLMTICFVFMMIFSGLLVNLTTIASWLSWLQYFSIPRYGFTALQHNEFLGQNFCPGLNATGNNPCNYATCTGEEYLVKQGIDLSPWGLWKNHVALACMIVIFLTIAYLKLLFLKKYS
Excerpt: inhibition of vanadate-sensitive ATPase activity in ABCG2 membranes on ABCG2 | bafetinib inhibited the ATPase activity of ABCG2 in a concentration-dependent manner

T1 sequence (P08183 whole entry): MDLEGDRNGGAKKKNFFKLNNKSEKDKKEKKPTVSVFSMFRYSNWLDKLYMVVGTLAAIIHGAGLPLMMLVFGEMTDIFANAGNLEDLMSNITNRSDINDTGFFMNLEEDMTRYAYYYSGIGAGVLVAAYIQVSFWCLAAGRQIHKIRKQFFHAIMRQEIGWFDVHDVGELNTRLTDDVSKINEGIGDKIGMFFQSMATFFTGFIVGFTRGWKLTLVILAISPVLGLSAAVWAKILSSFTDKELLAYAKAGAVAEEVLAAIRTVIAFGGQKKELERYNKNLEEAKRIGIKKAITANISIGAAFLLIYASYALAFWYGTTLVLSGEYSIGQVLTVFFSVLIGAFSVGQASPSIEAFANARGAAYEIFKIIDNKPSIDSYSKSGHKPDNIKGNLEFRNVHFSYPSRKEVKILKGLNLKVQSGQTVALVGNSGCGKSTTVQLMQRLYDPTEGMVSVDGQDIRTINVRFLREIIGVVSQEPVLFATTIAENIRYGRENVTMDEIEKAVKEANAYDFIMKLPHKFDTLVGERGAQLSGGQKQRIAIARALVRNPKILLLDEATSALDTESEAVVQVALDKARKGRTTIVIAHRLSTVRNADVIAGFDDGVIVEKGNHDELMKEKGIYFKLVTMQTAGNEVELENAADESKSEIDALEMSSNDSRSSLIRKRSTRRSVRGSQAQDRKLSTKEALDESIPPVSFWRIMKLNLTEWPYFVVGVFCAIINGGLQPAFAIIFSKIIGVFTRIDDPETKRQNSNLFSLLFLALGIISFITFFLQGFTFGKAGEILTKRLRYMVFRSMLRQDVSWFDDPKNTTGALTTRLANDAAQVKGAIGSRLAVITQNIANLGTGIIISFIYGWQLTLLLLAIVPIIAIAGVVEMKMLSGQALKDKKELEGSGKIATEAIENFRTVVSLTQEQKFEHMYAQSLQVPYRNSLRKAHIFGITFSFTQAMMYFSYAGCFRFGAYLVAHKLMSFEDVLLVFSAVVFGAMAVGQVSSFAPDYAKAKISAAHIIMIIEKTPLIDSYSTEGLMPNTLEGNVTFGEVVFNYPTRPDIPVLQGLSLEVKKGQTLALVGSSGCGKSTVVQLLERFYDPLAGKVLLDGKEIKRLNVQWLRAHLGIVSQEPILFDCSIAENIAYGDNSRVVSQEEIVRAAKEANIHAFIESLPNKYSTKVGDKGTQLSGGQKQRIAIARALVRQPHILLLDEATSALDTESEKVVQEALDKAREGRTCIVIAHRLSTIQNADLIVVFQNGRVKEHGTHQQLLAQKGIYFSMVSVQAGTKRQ

SMILES: Cc1ccc(NC(=O)c2ccc(CN3CC[C@H](N(C)C)C3)c(C(F)(F)F)c2)cc1Nc1nccc(-c2cncnc2)n1 [bafetinib]
- EC50 (ABCB1): 0.64 µM
- IC50 (ABCG2): 2.97 µM
